In ChEMBL document CHEMBL1125070, “Benzotriazinones as "virtual ring" mimics of o-methoxybenzamides: novel and potent 5-HT3 receptor antagonists” (J Med Chem, 1990) one finds ID50 data, which are given here for 11 compounds.

Each structure is given as a SMILES string. Where only a bound is given, the exact number is not on record here.

The experiment addresses Serotonin 3 (5-HT3) receptor (Rattus norvegicus) (UniProt P35563+Q9JJ16). In words: Antagonistic activity against 5-hydroxytryptamine 3 receptor as inhibition of 5-HT-induced bradycardia (von Bezold-jarisch reflex) in anesthetized rat. It counts as functional.
Turning to `CN1C2CCC1CC(n1nnc3ccccc3c1=O)C2` (stereo unspecified), the ID50 is above 0.05 mg/kg.
Consider `Nc1cc2nnn(C3CN4CCC3CC4)c(=O)c2cc1Cl` (stereo unspecified), for which the ID50 stood at 0.0036 mg/kg.
In turn, `CN1[C@@H]2CC[C@H]1C[C@@H](OC(=O)c1c[nH]c3ccccc13)C2` yielded an ID50 of 0.0014 mg/kg.
Take `CN1C2CCC1CC(NC(=O)c1ccc(N)c(Cl)c1)C2` (stereo unspecified): the ID50 was determined as 0.036 mg/kg.
Turning to `CN1C2CCC1CC(n1cnc3cc(N)c(Cl)cc3c1=O)C2` (stereo unspecified), the ID50 turned out to be 0.33 mg/kg.
The same measure for `CN1C2CCC1CC(n1nnc3cc([N+](=O)[O-])c(Cl)cc3c1=O)C2` (stereo unspecified): 0.013 mg/kg; for `CN1C2CCC1CC(n1nnc3ccc(Cl)cc3c1=O)C2` (stereo unspecified): 0.012 mg/kg; for `CN1[C@@H]2CC[C@H]1C[C@@H](OC(=O)c1cc(Cl)cc(Cl)c1)C2`: 0.035 mg/kg.
`COc1cc(N)ccc1C(=O)NC1CC2CCC(C1)N2C` (stereo unspecified) showed an ID50 of 0.016 mg/kg.
With `COc1ccc(Cl)cc1C(=O)NC1CC2CCC(C1)N2C` (stereo unspecified), the ID50 was determined as 0.015 mg/kg.
Regarding `COc1cc(N)c(Cl)cc1C(=O)NC1CC2CCC(C1)N2C` (stereo unspecified), the ID50 is 0.0008 mg/kg.
